The values below come from patent publication US8653083B2, “Hedgehog pathway antagonists to treat disease” (The Johns Hopkins University, priority 2005, dated 2014).

Structures can show the parent of a compound that is named as a salt.

The first experiment concerns AT6.3 metastasis model. Nature of the experiment: AT6.3 Dunning prostate cancer metastasis model, survival. In kind it is in vivo, mice. The settings on record: cyclopamine comparator, dose not given.
For `CC1=C2C[C@H]3[C@@H](CC=C4C[C@@H](O)CC[C@@]43C)[C@@H]2CC[C@]12O[C@@H]1C[C@H](C)CN[C@H]1[C@H]2C` [Cyclopamine], the survival result is “extending survival”.

The subject of another experiment is Sonic hedgehog (Shh) signaling. The experiment can be described thus: Cultured cell based Sonic hedgehog (Shh) signaling assay, luciferase reporter.
Settings: not given
How it is done:
A library of drugs was previously tested in humans for agents that antagonize Hedgehog signaling. […] The assays used for the screen for Hh pathway antagonists proceeded essentially as described in reference 5. Briefly, each candidate compound was added at 10 uM to a cultured cell based Sonic hedgehog (Shh) signaling assay in high through-put format. This assay utilized cells with a stably integrated firefly luciferase reporter that is responsive to ShhN signaling. These cells also contain a stably integrated, constitutively expressed Renila luciferase gene that can be used for normalization of response to Shh, and used also to monitor cell health.
On the technique in general: In a reporter assay the amount or activity of a reporter protein is the signal.
A word on the IC50: it is the midpoint of a concentration-inhibition curve. `C[C@@H]1C[C@@H]([C@H](O)CC2CC(=O)NC(=O)C2)C(=O)[C@@H](C)C1` [Cycloheximide] displayed a half-inhibitory concentration (IC50) of 0.3 to 1 µM.
For the compound `COc1cc2c(c(OC)c1OC)-c1ccc(=O)c(O)cc1[C@@H](NC(C)=O)CC2` [COLCHICEINE], the IC50 was in the range of 0.3 to 1 µM.
The compound `CC1=C2C[C@H]3[C@@H](CC=C4C[C@@H](O)CC[C@@]43C)[C@@H]2CC[C@]12O[C@@H]1C[C@H](C)CN[C@H]1[C@H]2C` [Cyclopamine] came in with an IC50 of 0.3 to 1 µM.
In the case of `C=C(C)[C@H]1Cc2c(ccc3c2O[C@@H]2COc4cc(OC)c(OC)cc4[C@@H]2C3=O)O1` [ROTENONE], the IC50 was 1 to 3 µM.

Still in this experiment, the particulars now being: Hh pathway inhibition; cells with ShhN-responsive firefly luciferase reporter, normalized to Renila luciferase; titration of 10 uM hits; read-out: IC50.
Take `c1cc(CN2CCCCC2)cc(OCCCNc2nc3ccccc3s2)c1` [Zolantidine]: the IC50 is 1 to 3 µM.
Same read-out and setting: the figure for `Nc1ncn([C@@H]2O[C@H](CO)[C@@H](O)[C@H]2O)c(=O)n1` [5-AZACYTIDINE] is 1 to 3 µM; for `CCC(C)n1ncn(-c2ccc(N3CCN(c4ccc(OCC5COC(Cn6cncn6)(c6ccc(Cl)cc6Cl)O5)cc4)CC3)cc2)c1=O` (racemic) [Itraconazole, (±)-cis-4-[4-[4-[4-[[2-(2,4-dichlorophenyl)-2-(1H-1,2,4-triazol-1-yl-methyl)-1,3-dioxolan-4-yl)methoxy]phenyl]-1-piperazinyl]phenyl]-2,4-dihydro-2-(1-methylpropyl)-3H-1,2,4-triazol-3-one] it is 0.3 µM; for `C=C1C(=O)O[C@H]2C[C@@H]1C(OC(C)=O)C/C(C)=C/CC/C(C)=C/CC[C@@]2(C)O` (some centres unmarked) [CRASSIN ACETATE] it is 1 to 3 µM.
`C[C@H]1[C@@H](O)O[C@@H]2O[C@@]3(C)CC[C@H]4[C@H](C)CC[C@@H]1[C@@]24OO3` [DIHYDROARTEMISIMIN]: the IC50 lay within 1 to 3 µM.
On the same count and under the same terms, as for `CC(CN1c2ccccc2Sc2ccccc21)N(C)C` (centres unmarked) [PROMETHAZINE HYDROCHLORIDE], the figure is 0.3 to 1 µM.
With `CC[C@]1(O)C[C@@H]2CN(CCc3c([nH]c4ccccc34)[C@@](C(=O)OC)(c3cc4c(cc3OC)N(C)[C@H]3[C@@](O)(C(=O)OC)[C@H](OC(C)=O)[C@]5(CC)C=CCN6CC[C@]43[C@@H]65)C2)C1` [Vinblastine sulfate], the 50% inhibitory concentration (IC50) lay within 0.3 to 1 µM.
On to `CC(CN(C)C)CN1c2ccccc2CCc2ccccc21` (centres unmarked) [TRIMIPRAMINE MALEATE], for which the IC50 lay within 1 to 3 µM.
On the same count and under the same terms, the figure for `CC[C@@H](C(=O)[C@@H](C)[C@@H](O)[C@H](C)[C@@H]1O[C@@H]([C@@H](CC)C(=O)O)CC[C@@H]1C)[C@H]1O[C@]2(C=C[C@@H](O)[C@]3(CC[C@@](C)([C@H]4CC[C@](O)(CC)[C@H](C)O4)O3)O2)[C@H](C)C[C@@H]1C` [SALINOMYCIN, SODIUM] is under 0.1 µM; for `CC(=O)Oc1ccc2c(c1)CC[C@@H]1[C@@H]2CC[C@]2(C)[C@@H](O)CC[C@@H]12` [ESTRADIOL ACETATE] it is 1 to 3 µM.
In the case of `CN(C)CCCN1c2ccccc2CCc2ccccc21` [Imipramine], the IC50 was 1 to 3 µM.
In the case of `CCOC(=O)NC1=C(N2CC2)C(=O)C(NC(=O)OCC)=C(N2CC2)C1=O` [Diaziquone], the 50% inhibitory concentration (IC50) lay within 0.3 to 1 µM.
Still for that read-out and setting: as for `CN(C)CCCN1c2ccccc2Sc2ccccc21` [PROMAZINE HYDROCHLORIDE], the figure is 1 to 3 µM; as for `O=C(c1ccc(OCCN2CCCCC2)cc1)c1c(-c2ccc(O)cc2)sc2cc(O)ccc12` [Raloxifene hydrochloride], 1 to 3 µM; as for `CN1CCC(=C2c3ccccc3Sc3ccccc32)CC1` [PIMETHIXENE MALEATE], 0.3 to 1 µM.
Take `Cc1cc(NS(=O)(=O)c2ccc(N)cc2)nc(C)n1` [Sulfisomidine]: the IC50 fell in the range of 0.3 to 1 µM.
As for `OCCOCCN1CCN(C(c2ccccc2)c2ccc(Cl)cc2)CC1` (centres unmarked) [Hydroxyzine], the IC50 fell in the range of 0.3 to 1 µM.
In the case of `COc1ccc(C[C@H]2NC[C@H](O)[C@H]2OC(C)=O)cc1` [Anisomycin], the 50% inhibitory concentration (IC50) is under 0.1 µM.
As for `Nc1ccc(S(=O)(=O)Nc2cnc3ccccc3n2)cc1` [SULFAQUINOXALINE SODIUM], the IC50 is 0.3 to 1 µM.
Regarding `CC[C@]1(O)C[C@@H]2CN(CCc3c([nH]c4ccccc34)[C@@](C(=O)OC)(c3cc4c(cc3OC)N(C)[C@H]3[C@@](O)(C(N)=O)[C@H](O)[C@]5(CC)C=CCN6CC[C@]43[C@@H]65)C2)C1` [Vindesine], the IC50 was under 0.1 µM.
Regarding `CC[C@H]1/C=C/C=C/C[C@@H](C)[C@H](O)[C@@](C)(O)C(=O)[C@@H](C)[C@H](O)[C@@H](C)C(=O)[C@@H](C)[C@H](O)[C@@H](C)/C=C/C(=O)O[C@@H]2[C@H](C)[C@H](CC1)O[C@]1(CC[C@H](C)[C@H](C[C@@H](C)O)O1)[C@H]2C` [OLIGOMYCIN], the IC50 is under 0.1 µM.
The same measure, in the same setting: the figure for `CN1CCN(C2=Nc3ccccc3Sc3ccc(Cl)cc32)CC1` [Clothiapine] is 1 to 3 µM.
On the same count and under the same terms, as for `CC(COc1ccccc1)N(CCCl)Cc1ccccc1` (centres unmarked) [PHENOXYBENZAMINE HYDROCHLORIDE], the figure is 1 to 3 µM; as for `CN(C)CCC=C1c2ccccc2CCc2ccccc21` [Amitriptyline], 1 to 3 µM; as for `CC[C@]1(O)C[C@H]2CN(CCc3c([nH]c4ccccc34)[C@@](C(=O)OC)(c3cc4c(cc3OC)N(C=O)[C@H]3[C@@](O)(C(=O)OC)[C@H](OC(C)=O)[C@]5(CC)C=CCN6CC[C@]43[C@@H]65)C2)C1` [Vincristine sulfate], under 0.1 µM.
As for `Cc1ccc2c(Cl)cc(Cl)c(O)c2n1` [Chlorquinaldol, 5,7-Dichloro-2-methyl-8-quinolinol], the 50% inhibitory concentration (IC50) is 3 µM.
As for `CC12CCC(CC1)C(C)(C)O2` [Eucalyptol], the IC50 fell in the range of 0.3 to 1 µM.
As to `CN1CCN(C2=Nc3ccccc3Oc3ccc(Cl)cc32)CC1` [LOXAPINE SUCCINATE], the IC50 lay in the range of 0.1 to 0.3 µM.
For `CCC1=C[C@@H]2CN(C1)Cc1c([nH]c3ccccc13)[C@@](C(=O)OC)(c1cc3c(cc1OC)N(C)[C@H]1[C@@](O)(C(=O)OC)[C@H](OC(C)=O)[C@]4(CC)C=CCN5CC[C@]31[C@@H]54)C2` [Vinorelbine tartrate], the half-inhibitory concentration (IC50) was under 0.1 µM.

Another experiment relates to 22RV1 xenografts. Nature of the experiment: 22RV1 human prostate cancer xenografts in athymic mice, tumor growth. The conditions noted are these: itraconazole 37.5 mg/kg. The format is in vivo.
On to `CCC(C)n1ncn(-c2ccc(N3CCN(c4ccc(OCC5COC(Cn6cncn6)(c6ccc(Cl)cc6Cl)O5)cc4)CC3)cc2)c1=O` (racemic) [Itraconazole, (±)-cis-4-[4-[4-[4-[[2-(2,4-dichlorophenyl)-2-(1H-1,2,4-triazol-1-yl-methyl)-1,3-dioxolan-4-yl)methoxy]phenyl]-1-piperazinyl]phenyl]-2,4-dihydro-2-(1-methylpropyl)-3H-1,2,4-triazol-3-one], for which the tumor volume change is reported as −100 % volume.
